Reference: US8859580B2 (Boehringer Ingelheim International GmbH, priority 2007, dated 2014)

Biological target: T1, 11β-HSD1 (Homo sapiens, UniProt P28845)
T1 construct: detecting cortisol generated from cortisterone by human liver microsomes; from tissue; host or cells: human liver microsomes
Assay: In vitro inhibition of 11β-HSD1, HTRF detection of cortisol generated from cortisone by human liver microsomes
Type: biochemical
Settings: 11β-HSD IC50 (nM), 1 hour at 37° C., pH 6.0, NADPH 200 μM, cortisone 80 nM, inhibition relative to carbenoxolone signal
Summary of the method: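 Cortisol formed from cortisone by human liver microsomes quantified by competitive HTRF immunoassay (XL665-cortisol, Eu-cryptate anti-cortisol antibody), 2 h detection, Em665/Em615 ratio converted via cortisol calibration curve. Percent inhibition relative to carbenoxolone signal; IC50 from curves.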

T1 sequence (P28845 whole entry): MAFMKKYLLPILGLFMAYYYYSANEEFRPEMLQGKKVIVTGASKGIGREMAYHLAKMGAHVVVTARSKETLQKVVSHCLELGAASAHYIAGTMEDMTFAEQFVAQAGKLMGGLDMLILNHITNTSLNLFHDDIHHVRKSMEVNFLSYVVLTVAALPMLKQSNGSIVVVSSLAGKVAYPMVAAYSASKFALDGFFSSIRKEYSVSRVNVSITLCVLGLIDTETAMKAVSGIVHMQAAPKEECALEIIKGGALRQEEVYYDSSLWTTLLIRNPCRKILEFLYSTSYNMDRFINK

SMILES | IC50 [nM]
C[C@@H]1[C@H]2Cc3ccc(-c4cccnc4)cc3[C@]1(C)CCN2C(=O)c1ccc2nc[nH]c2c1 [Example 250, (3H-Benzoimidazol-5-yl)-[(2R,6R,11S)-6,11-dimethyl-8-pyridin-3-yl-1,2,5,6-tetrahydro-4H-2,6-methano-benzo[d]azocin-3-yl]-methanone] | 53
CC1(C)[C@H]2Cc3ccccc3[C@]1(C)CCN2C(=O)c1ccc2nccnc2c1 [Example 278, Quinoxalin-6-yl-[(2R,6S)-6,11,11-trimethyl-1,2,5,6-tetrahydro-4H-2,6-methano-benzo[d]azocin-3-yl]-methanone] | 438
CC1(C)[C@H]2Cc3ccccc3[C@]1(C)CCN2C(=O)c1ccc([N+](=O)[O-])cc1 [Example 280, (4-Nitro-phenyl)-[(2R,6S)-6,11,11-trimethyl-1,2,5,6-tetrahydro-4H-2,6-methano-benzo[d]azocin-3-yl]-methanone] | 1260
CC1(C)[C@H]2Cc3c(O)cccc3[C@]1(C)CCN2C(=O)c1ccncc1Cl [Example 144, (3-Chloro-pyridin-4-yl)-[(2R,6S)-10-hydroxy-6,11,11-trimethyl-1,2,5,6-tetrahydro-4H-2,6-methano-benzo[d]azocin-3-yl]-methanone] | 2560
CC1(C)[C@H]2Cc3c(C(N)=O)cccc3[C@]1(C)CCN2C(=O)c1ccc2nc[nH]c2c1 [Example 160, (2R,6S)-3-(3H-Benzoimidazole-5-carbonyl)-6,11,11-trimethyl-1,2,3,4,5,6-hexahydro-2,6-methano-benzo[d]azocine-10-carboxylic acid amide] | 2180
COC(=O)c1cc(Cl)cc(C(=O)N2CC[C@@]3(C)c4cccc(O)c4C[C@@H]2C3(C)C)c1 [Example 42, 3-Chloro-5-[(2R,6S)-10-hydroxy-6,11,11-trimethyl-1,2,5,6-tetrahydro-4H-2,6-methano-benzo[d]azocine-3-carbonyl]-benzoic acid methyl ester] | 4530
CC1(C)[C@H]2Cc3c(O)cccc3[C@]1(C)CCN2C(=O)c1ccncn1 [Example 129, [(2R,6S)-10-Hydroxy-6,11,11-trimethyl-1,2,5,6-tetrahydro-4H-2,6-methano-benzo[d]azocin-3-yl]-pyrimidin-4-yl-methanone] | 5850
COc1cccc2c1C[C@H]1N(C(=O)c3ccoc3C)CC[C@]2(C)C1(C)C [Example 104, [(2R,6S)-10-Methoxy-6,11,11-trimethyl-l,2,5,6-tetrahydro-4H-2,6-methano-benzo[d]azocin-3-yl]-(2-methyl-furan-3-yl)-methanone] | 1390
Cc1ccc(C(=O)N2CC[C@@]3(C)c4cccc(O)c4C[C@@H]2C3(C)C)cc1 [Example 12, [(2R,6S)-10-Hydroxy-6,11,11-trimethyl-1,2,5,6-tetrahydro-4H-2,6-methano-benzo[d]azocin-3-yl]-p-tolyl-methanone] | 792
Cc1cc2nc[nH]c2cc1C(=O)N1CC[C@@]2(C)c3cccc(O)c3C[C@@H]1C2(C)C [Example 210, [(2R,6S)-10-Hydroxy-6,11,11-trimethyl-1,2,5,6-tetrahydro-4H-2,6-methano-benzo[d]azocin-3-yl]-(6-methyl-3H-benzoimidazol-5-yl)-methanone] | 68
CC1(C)[C@H]2Cc3ccccc3[C@]1(C)CCN2C(=O)c1ccc2cn[nH]c2c1 [Example 285, (1H-Indazol-6-yl)-[(2R,6S)-6,11,11-trimethyl-1,2,5,6-tetrahydro-4H-2,6-methano-benzo[d]azocin-3-yl]-methanone] | 150
Cc1cccc2c1C[C@H]1N(C(=O)c3ccc4nc[nH]c4c3)CC[C@]2(C)C1(C)C [Example 139, (3H-Benzoimidazol-5-yl)-[(2R,6S)-6,10,11,11-tetramethyl-1,2,5,6-tetrahydro-4H-2,6-methano-benzo[d]azocin-3-yl]-methanone] | 92
Cc1cccc(C(=O)N2CC[C@@]3(C)c4cccc(O)c4C[C@@H]2C3(C)C)c1 [Example 7, [(2R,6S)-10-Hydroxy-6,11,11-trimethyl-1,2,5,6-tetrahydro-4H-2,6-methano-benzo[d]azocin-3-yl]-m-tolyl-methanone] | 262
COc1ccc2c(c1)[C@]1(C)CCN(C(=O)c3cccnc3)[C@H](C2)[C@@H]1C [Example 107, [(2R,6R,11R)-8-Methoxy-6,11-dimethyl-1,2,5,6-tetrahydro-4H-2,6-methano-benzo[d]azocin-3-yl]-pyridin-3-yl-methanone] | 2550
CC(=O)Nc1ccc(C(=O)N2CC[C@@]3(C)c4cccc(O)c4C[C@@H]2C3(C)C)cc1F [Example 27, N-{2-Fluoro-4-[(2R,6S)-10-hydroxy-6,11,11-trimethyl-1,2,5,6-tetrahydro-4H-2,6-methano-benzo[d]azocine-3-carbonyl]-phenyl}-acetamide] | 629
Cc1nc2cc(C(=O)N3CC[C@@]4(C)c5cccc(O)c5C[C@@H]3C4(C)C)ccc2c(=O)[nH]1 [Example 34, 7-[(2R,6S)-10-Hydroxy-6,11,11-trimethyl-1,2,5,6-tetrahydro-4H-2,6-methano-benzo[d]azocine-3-carbonyl]-2-methyl-3H-quinazolin-4-one] | 3880
CN(C)C(=O)c1cccc(C(=O)N2CC[C@@]3(C)c4cccc(O)c4C[C@@H]2C3(C)C)c1 [Example 38, 3-[(2R,6S)-10-Hydroxy-6,11,11-trimethyl-1,2,5,6-tetrahydro-4H-2,6-methano-benzo[d]azocine-3-carbonyl]-N,N-dimethyl-benzamide] | 1440
CC1(C)[C@H]2Cc3c(O)cccc3[C@]1(C)CCN2C(=O)c1ccc(Cn2ccnc2)cc1 [Example 123, [(2R,6S)-10-Hydroxy-6,11,11-trimethyl-1,2,5,6-tetrahydro-4H-2,6-methano-benzo[d]azocin-3-yl]-(4-imidazol-1-ylmethyl-phenyl)-methanone] | 297
CC1(C)[C@H]2Cc3cc4oc([C@H]5CCCO5)nc4cc3[C@]1(C)CCN2C(=O)c1ccc2nc[nH]c2c1 [Example 337, (3H-Benzoimidazol-5-yl)-[(6R,10S)-5,6,7,8,9,10-hexahydro-10,12,12-trimethyl-2-[(R)-tetrahydrofuran-2-yl]-6,10-methano-oxazolo[4,5-i][3]benzazocin-7-yl]-methanone] | 52
Cc1ncc(-c2ccc3c(c2)[C@]2(C)CCN(C(=O)c4ccc5nc[nH]c5c4)[C@H](C3)[C@H]2C)cn1 [Example 315, (3H-Benzoimidazol-5-yl)-[(2R,6R,11S)-6,11-dimethyl-8-(2-methyl-pyrimidin-5-yl)-1,2,5,6-tetrahydro-4H-2,6-methano-benzo[d]azocin-3-yl]-methanone] | 61
CNC(=O)c1ccc2c(c1)[C@]1(C)CCN(C(=O)c3ccc4nc[nH]c4c3)[C@H](C2)[C@H]1C [Example 156, (2R,6R,11S)-3-(3H-Benzoimidazole-5-carbonyl)-6,11-dimethyl-1,2,3,4,5,6-hexahydro-2,6-methano-benzo[d]azocine-8 carboxylic acid methylamide] | 340
C[C@@H]1[C@H]2Cc3ccc(O)cc3[C@]1(C)CCN2C(=O)c1ccc2nc[nH]c2c1 [Example 52, (3H-Benzoimidazol-5-yl)-[(2R,6R,11S)-8-hydroxy-6,11-dimethyl-1,2,5,6-tetrahydro-4H-2,6-methano-benzo[d]azocin-3-yl]-methanone] | 101
